This passage reports Kd results from paper PMC12066314, “Apigenin promotes melanogenesis and melanosome transport through the c-KIT/Raf-1/MAPK/CREB pathway in HEMCs” (Frontiers in Pharmacology, 2025).

As usually defined, the Kd is the equilibrium constant for the complex coming apart. Low values mean a tighter complex, high ones a looser complex.

SMILES strings stand for the structures.

This test addresses c-KIT (Homo sapiens, UniProt P10721). The test can be described thus: microscale thermophoresis (MST), […] target. The test is classed as binding.

Sequence of c-KIT (P10721 26-976): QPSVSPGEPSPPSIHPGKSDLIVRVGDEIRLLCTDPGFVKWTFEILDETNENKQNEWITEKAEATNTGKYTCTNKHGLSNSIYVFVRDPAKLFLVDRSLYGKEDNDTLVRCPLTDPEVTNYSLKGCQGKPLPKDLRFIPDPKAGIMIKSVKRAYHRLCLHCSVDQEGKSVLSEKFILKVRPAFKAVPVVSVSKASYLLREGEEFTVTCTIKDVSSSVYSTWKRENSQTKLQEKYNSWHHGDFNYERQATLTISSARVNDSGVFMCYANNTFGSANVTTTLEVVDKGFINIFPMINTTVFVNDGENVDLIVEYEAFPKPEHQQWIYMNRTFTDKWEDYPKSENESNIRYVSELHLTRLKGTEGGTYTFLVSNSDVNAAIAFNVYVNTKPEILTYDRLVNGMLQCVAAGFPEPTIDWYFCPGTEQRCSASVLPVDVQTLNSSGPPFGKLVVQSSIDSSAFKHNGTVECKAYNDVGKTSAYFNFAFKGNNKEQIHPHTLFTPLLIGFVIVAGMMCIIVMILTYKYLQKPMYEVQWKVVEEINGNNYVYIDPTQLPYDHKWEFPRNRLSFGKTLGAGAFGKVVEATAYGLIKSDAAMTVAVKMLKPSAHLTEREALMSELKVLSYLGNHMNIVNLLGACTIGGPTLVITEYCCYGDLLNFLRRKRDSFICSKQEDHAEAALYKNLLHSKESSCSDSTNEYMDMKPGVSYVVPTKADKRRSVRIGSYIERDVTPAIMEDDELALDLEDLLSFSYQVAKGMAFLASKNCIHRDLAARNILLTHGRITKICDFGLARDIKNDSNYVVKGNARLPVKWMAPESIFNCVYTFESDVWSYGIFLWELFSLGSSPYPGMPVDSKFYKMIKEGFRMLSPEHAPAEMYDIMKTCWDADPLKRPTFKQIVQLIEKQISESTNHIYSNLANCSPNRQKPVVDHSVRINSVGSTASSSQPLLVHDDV

`O=c1cc(-c2ccc(O)cc2)oc2cc(O)cc(O)c12` [Apigenin] returned a Kd of 2600 nM.
